Experimental data published in patent publication US20220402998A1, “PROTEASE SWITCH FOR DUAL TARGETS CHIMERIC ANTIGEN RECEPTOR T CELL THERAPY” (priority 2019, published 2022).

Test system: NS3/4A protease domain of the CAR
Assay: CAR surface expression on transduced T cells by flow cytometry with or without asunaprevir
Format: cell-based, hepatitis C virus
Experimental: For flow cytometry, cells are stained using standard procedures. Briefly, cells are suspended at a concentration of 1×10^7 cells/ml in PBS+3% FBS for analysis or in Sort Buffer (PBS, 25 mM HEPES, 1 mM EDTA, 0.1% BSA) for sorting. […] Cells are analyzed by flow cytometry using a CytoFLEX (Beckman Coulter Life Sciences, Indianapolis, Ind.) and operated under standard procedures. To enrich subpopulations of CD4+ and/or CD8+ cells, magnetically separated cells are stained with anti-CD4 and/or anti-CD8 antibodies and sorted on a FACScalibur Cell Sorter.
After T cell transduction, different drugs were provided, CD19-, CD22-CAR were detected by CD19, CD22 protein through flow cytometry. Further, the biological characteristics of the dual-target switchable CAR-T cells were determined. For example, CD25 and CD69 antibodies were used to perform activation assays, CFSE for proliferation assays, CD4, CD8, CCR7 and CD45RA antibodies for determining T cell subsets, and Annexin-V for apoptosis assays. Further, cytotoxicity assays (Calcein-AM release), CD107a assay, and cytokine production detection were performed. These assays are of great importance in testing potency and defining how the switch system works.

C=C[C@@H]1C[C@]1(NC(=O)[C@@H]1C[C@@H](Oc2ncc(OC)c3ccc(Cl)cc23)CN1C(=O)[C@@H](NC(=O)OC(C)(C)C)C(C)(C)C)C(=O)NS(=O)(=O)C1CC1 [asunaprevir]
stability of CAR expression levels over time (in the presence of asunaprevir): stable over time | CAR expression on T cell surface (in the presence of asunaprevir, flow cytometry): a significant portion of T cells express on their cell surface the CAR | expression levels of CARs on cell surface versus concentration (increasing concentrations of asunaprevir): increase with exposure of said T cells to increasing concentrations of asunaprevir | CARs on the surface of CAR-T cells after withdrawal (withdrawal of asunaprevir for 24 hours): significant reduction of CARs on the surface of CAR-T cells | CARs on the surface of CAR-T cells after withdrawal (withdrawal of asunaprevir for 48 hours): absence of CARs on CAR-T cells
